Assay results taken from PMC7530392, “A label‐free impedance assay in endothelial cells differentiates the activation and desensitization properties of clinical S1P1 agonists” (FEBS Open Bio, 2020).
Entries after “also recorded” stand apart in the source; their conditions may differ. Where two headings read alike, the source gives them in different places.

Experiments:
[1] = test system: human S1P1; test: β-arrestin recruitment assay in PathHunter cells overexpressing human S1P1; assay type: cell-based; details: read-out: IC50 inhibition of β-arrestin recruitment
Description: The cellular potency of the GRK2 inhibitor was determined using a β‐arrestin recruitment assay in PathHunter® cells overexpressing human S1P1 (Eurofins DiscoverX Corporation, San Diego, CA, USA; catalogue number 93‐0207C2) as described. The mean IC50 from at least 3 separate experiments was reported.

[2] = biological target: T1, recombinant human GRK2 (Homo sapiens, UniProt P25098); test: 33P-ATP flash plate kinase assay; assay type: biochemical; details: 3 µM ATP, biotin-[…] substrate
T1 construct: purchased Thermo Fisher PR4694A
T1 sequence (P25098 1-689): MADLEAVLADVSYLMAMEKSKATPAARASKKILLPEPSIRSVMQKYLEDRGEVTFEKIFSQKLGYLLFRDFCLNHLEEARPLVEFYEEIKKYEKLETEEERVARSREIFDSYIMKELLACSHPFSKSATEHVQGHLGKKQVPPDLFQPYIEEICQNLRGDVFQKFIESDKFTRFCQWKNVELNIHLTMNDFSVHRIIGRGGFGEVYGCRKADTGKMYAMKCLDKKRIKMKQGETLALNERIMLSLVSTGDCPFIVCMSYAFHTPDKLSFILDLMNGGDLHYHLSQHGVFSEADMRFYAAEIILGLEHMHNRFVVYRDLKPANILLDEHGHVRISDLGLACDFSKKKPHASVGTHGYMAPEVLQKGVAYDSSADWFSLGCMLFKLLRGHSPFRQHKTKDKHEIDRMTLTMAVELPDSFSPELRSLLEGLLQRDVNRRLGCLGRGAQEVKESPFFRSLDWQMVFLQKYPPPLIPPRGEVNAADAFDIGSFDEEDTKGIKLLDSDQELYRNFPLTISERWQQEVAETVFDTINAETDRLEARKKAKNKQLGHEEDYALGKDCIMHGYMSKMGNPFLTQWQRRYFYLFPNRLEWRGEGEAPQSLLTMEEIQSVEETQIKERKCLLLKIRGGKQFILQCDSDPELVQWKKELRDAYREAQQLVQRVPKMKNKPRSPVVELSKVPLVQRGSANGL

[3] = biological target: T2, S1P1 (Homo sapiens, UniProt P21453); test: Label-free impedance assay in HUVEC, first stimulation (early and late BNCI response); assay type: cell-based; details: for Late phase Max: determined manually for bell-shaped responses; for Early phase Max: BNCI curve maximum; for Early phase Max / Early phase Min / Early phase Hill slope: early response; for Early phase Min: BNCI curve minimum; for Emax: read-out: Maximum BNCI in late response as % of E max in early response; for EC50: first stimulation, geometric mean; for Impedance profile in the presence of the GRK2 inhibitor: 10 µM GRK2 inhibitor, over 60 min
T2 construct: host or cells: HUVEC (pooled donors)
Description: (§1) HUVECs from pooled donors (PromoCell GmbH, Heidelberg, Germany, C‐12203) were seeded at 10 000 cells per well, in complete medium (C2210, C39210) containing 2% fetal bovine serum (FBS), in 96‐well collagen‐I coated E‐plates. Cells were allowed to attach and proliferate for 6 h, followed by overnight serum starvation in medium containing 0.1% FBS. Electrical impedance was measured continuously with RTCA‐MP station (xCELLigence RTCA, ACEA‐Biosciences, San Diego, CA, USA), according to the manufacturer’s protocol, and expressed as baseline normalized cell index (BNCI) using RTCA2.0 software. Impedance measurements were analyzed for 60 min following addition of test compounds or DMSO control, and the early (peak response at 8–10 min) and late response (at 60 min) was used for further analysis. Cells were then washed in medium containing 0.1% FBS for 5.5 h. The effect of each test compound to desensitize the response to a second stimulation with the natural ligand S1P (80 nM) was measured in the same wells and expressed as the AUC0–60 min of the S1P‐induced BNCI response. […] The baseline for the BNCI calculation was the respective vehicle responses for the first (0.1% DMSO) and second stimulations (2.5 µg·mL^−1 BSA). When tested, 10 µM GRK2 inhibitor was pretreated with cells for 2 h prior to addition of test compounds and its effect on early and late responses measured as above. All experiments were repeated on at least 3 separate occasions.
Effective concentration corresponding to half of the difference between the maximum and minimum effect (EC50) of agonists was determined with SAS procedure NLIN in SAS system release 9.1 under UNIX via BIOSTAT@T‐SPEED‐LTS v2.0 internal software using the 4‐parameter logistical model.

[4] = test system: lymphocytes; details: approved dose in MS; no reference given; cited from earlier work
[5] = cited from earlier work
[6] = biological target: T2, S1P1; test: Desensitization of S1P-induced BNCI response in HUVEC (second stimulation with 80 nM S1P); assay type: cell-based; details: for Desensitization Max: S1P-induced BNCI response curve maximum; for Desensitization Max / Desensitization Min / Desensitization Hill slope: arithmetic mean; for Desensitization Min: S1P-induced BNCI response curve minimum; for IC50: absolute 50% reduction of control S1P (80 nM)-induced BNCI AUC0–60 min after 5.5 h wash, geometric mean, read-out: Desensitization IC50 [95% CI]
Description: as §1
The activation‐to‐desensitization ratio was expressed as IC50/EC50 for early phase. EC50, IC50, and activation‐to‐desensitization ratio were reported as geometric mean with 95% confidence intervals.

[7] = BNCI at 60 min, arithmetic mean
[8] = late (60 min) versus early phase
[9] = BNCI peak response at 8–10 min, read-out: Early phase EC50 [95% CI]

T2 sequence (P21453 whole entry): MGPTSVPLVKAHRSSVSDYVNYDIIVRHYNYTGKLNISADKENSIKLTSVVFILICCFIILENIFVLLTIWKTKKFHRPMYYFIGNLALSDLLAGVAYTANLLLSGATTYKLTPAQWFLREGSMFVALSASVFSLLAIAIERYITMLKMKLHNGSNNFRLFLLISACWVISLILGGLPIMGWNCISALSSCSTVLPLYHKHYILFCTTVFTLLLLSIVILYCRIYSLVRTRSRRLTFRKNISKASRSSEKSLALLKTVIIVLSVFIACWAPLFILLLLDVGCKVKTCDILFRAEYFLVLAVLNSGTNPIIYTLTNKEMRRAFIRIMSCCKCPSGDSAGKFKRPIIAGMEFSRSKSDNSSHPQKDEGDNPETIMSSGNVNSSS

Shape of concentration–effect relationship in the late response ([3]; BNCI at 60 min) | Late phase Max [3, 7] | Early phase Max ([3]; arithmetic mean) | Early phase Min ([3]; arithmetic mean) | Early phase Hill slope ([3]; arithmetic mean) | Emax [3, 8] | EC50 [3, 9] | Structure (SMILES) | Lymphocyte reduction [4] | Volume of distribution in human [5] | Desensitization Max [6] | Desensitization Min [6] | Desensitization Hill slope [6] | IC50 [6] | Impedance profile in the presence of the GRK2 inhibitor [3] | further results
– | – | – | – | – | – | – | O=C(NCc1ccc2onc(NCc3ccccc3C(F)(F)F)c2c1)c1ccc2[nH]ncc2c1 [GRK2 inhibitor, 1H‐Indazole‐5‐carboxylic acid [3‐(2‐trifluoromethyl‐benzylamino)‐1,2‐benzisoxazol‐5‐ylmethyl]‐amide] | – | – | – | – | – | – | – | IC50 [1]: 1100 nM; IC50 [2]: 44 nM
bell‐shaped | 0.234 | 0.461 | 0.188 | 1.1 | 51% | – | CC(C)Oc1ccc(-c2nc(-c3cccc4c3CC[C@@H]4NCCO)no2)cc1C#N [Ozanimod, ozanimod] | 55% | 5590 [5] L | 91.5 | −13.9 | −1.5 | – | – | –
bell‐shaped | 0.468 | 0.582 | 0.175 | 1.2 | 81% | 2.41 nM | CCC/N=C1\S/C(=C\c2ccc(OC[C@H](O)CO)c(Cl)c2)C(=O)N1c1ccccc1C [Ponesimod, ponesimod] | – | 160 [37] L | 79.3 | −38.2 | −0.9 | 18.4 nM | – | Activation-to-desensitization ratio [95% CI] ([6]; desensitization IC50 / early phase EC50, geometric mean): 7.66 (3.41–17.2); S1P-induced BNCI response after preincubation at the highest concentrations tested ([6]; second stimulation with S1P): fall below the baseline
bell‐shaped | 0.150 | 0.440 | 0.012 | 0.7 | 34% | 0.977 nM | CCc1cc(/C(C)=N/OCc2ccc(C3CCCCC3)c(C(F)(F)F)c2)ccc1CN1CC(C(=O)O)C1 [Siponimod, siponimod] | 70–80% | – | 96.8 | −16.3 | −1.0 | 0.167 nM | sustained BNCI increase with no signal decline over 60 min | Barrier effect in late response in the presence of the GRK inhibitor ([3]; 10 µM GRK inhibitor, same concentrations that gave negative BNCI without inhibitor): improved barrier integrity; Late response BNCI at highest concentrations (barrier effect) ([3]; 60 min, absence of GRK inhibitor): endothelial barrier disruption; also recorded: concentration‐dependent decrease to negative BNCI values
– | – | – | – | – | – | – | CCCCCCCCc1ccc(CCC(N)(CO)CO)cc1 [fingolimod] | 70–80% | – | – | – | – | – | – | –

Structure (SMILES) | Shape of concentration–effect relationship in the late response ([3]; BNCI at 60 min) | Late phase Max [3, 7] | Early phase Max ([3]; arithmetic mean) | Early phase Min ([3]; arithmetic mean) | Early phase Hill slope ([3]; arithmetic mean) | Emax [3, 8] | EC50 [3, 9] | Lymphocyte reduction [4] | Volume of distribution in human [5] | Desensitization Max [6] | Desensitization Min [6] | Desensitization Hill slope [6] | IC50 [6] | Impedance profile in the presence of the GRK2 inhibitor [3] | further results
Cc1cc(-c2nc3cnc(Oc4cccc(Cl)c4)nc3o2)cc(C)c1OCC(=O)O [SAR247799] | – | 0.425 | 0.527 | 0.101 | 1.0 | – | 26.1 nM | – | 7–23 [13] L | 89.3 | 1.1 | −1.9 | 2980 nM | sustained BNCI increase with no signal decline over 60 min | Late phase Hill slope [3, 7]: 0.7; Late phase Min [3, 7]: 0.045; EC50 ([3]; BNCI at 60 min, read-out: Late phase EC50 [95% CI]): 42.8 nM; Maximum BNCI in late response as % of E max in early response [3, 8]: 81%; Further increase of late response by presence of GRK inhibitor ([3]; late response, 10 µM GRK inhibitor pretreated 2 h): 2 fold
